By IC50 is commonly meant the midpoint of a concentration-inhibition curve.

Structures can show the parent of a compound that is named as a salt. Where two headings read alike, the source gives them in different places.

The results in this text go back to patent US20230038929A1, “Fused Tricyclic Heterocyclic Compounds and Uses Thereof” (Verge Analytics, Inc., priority 2019, published 2023).

For assay [1], the target named is T1, Full length human recombinant PIKFYVE (Homo sapiens, UniProt Q9Y2I7, L932S/Q1183K/Q995L/S1033A/S696N/T998S).
T1 construct: Full length human recombinant PIKFYVE; purchased Carna Biosciences (Kobe, Japan); host or cells: baculovirus expression system (insect cells)
T1 sequence (Q9Y2I7 whole entry S696N/L932S/Q995L/T998S/S1033A/Q1183K): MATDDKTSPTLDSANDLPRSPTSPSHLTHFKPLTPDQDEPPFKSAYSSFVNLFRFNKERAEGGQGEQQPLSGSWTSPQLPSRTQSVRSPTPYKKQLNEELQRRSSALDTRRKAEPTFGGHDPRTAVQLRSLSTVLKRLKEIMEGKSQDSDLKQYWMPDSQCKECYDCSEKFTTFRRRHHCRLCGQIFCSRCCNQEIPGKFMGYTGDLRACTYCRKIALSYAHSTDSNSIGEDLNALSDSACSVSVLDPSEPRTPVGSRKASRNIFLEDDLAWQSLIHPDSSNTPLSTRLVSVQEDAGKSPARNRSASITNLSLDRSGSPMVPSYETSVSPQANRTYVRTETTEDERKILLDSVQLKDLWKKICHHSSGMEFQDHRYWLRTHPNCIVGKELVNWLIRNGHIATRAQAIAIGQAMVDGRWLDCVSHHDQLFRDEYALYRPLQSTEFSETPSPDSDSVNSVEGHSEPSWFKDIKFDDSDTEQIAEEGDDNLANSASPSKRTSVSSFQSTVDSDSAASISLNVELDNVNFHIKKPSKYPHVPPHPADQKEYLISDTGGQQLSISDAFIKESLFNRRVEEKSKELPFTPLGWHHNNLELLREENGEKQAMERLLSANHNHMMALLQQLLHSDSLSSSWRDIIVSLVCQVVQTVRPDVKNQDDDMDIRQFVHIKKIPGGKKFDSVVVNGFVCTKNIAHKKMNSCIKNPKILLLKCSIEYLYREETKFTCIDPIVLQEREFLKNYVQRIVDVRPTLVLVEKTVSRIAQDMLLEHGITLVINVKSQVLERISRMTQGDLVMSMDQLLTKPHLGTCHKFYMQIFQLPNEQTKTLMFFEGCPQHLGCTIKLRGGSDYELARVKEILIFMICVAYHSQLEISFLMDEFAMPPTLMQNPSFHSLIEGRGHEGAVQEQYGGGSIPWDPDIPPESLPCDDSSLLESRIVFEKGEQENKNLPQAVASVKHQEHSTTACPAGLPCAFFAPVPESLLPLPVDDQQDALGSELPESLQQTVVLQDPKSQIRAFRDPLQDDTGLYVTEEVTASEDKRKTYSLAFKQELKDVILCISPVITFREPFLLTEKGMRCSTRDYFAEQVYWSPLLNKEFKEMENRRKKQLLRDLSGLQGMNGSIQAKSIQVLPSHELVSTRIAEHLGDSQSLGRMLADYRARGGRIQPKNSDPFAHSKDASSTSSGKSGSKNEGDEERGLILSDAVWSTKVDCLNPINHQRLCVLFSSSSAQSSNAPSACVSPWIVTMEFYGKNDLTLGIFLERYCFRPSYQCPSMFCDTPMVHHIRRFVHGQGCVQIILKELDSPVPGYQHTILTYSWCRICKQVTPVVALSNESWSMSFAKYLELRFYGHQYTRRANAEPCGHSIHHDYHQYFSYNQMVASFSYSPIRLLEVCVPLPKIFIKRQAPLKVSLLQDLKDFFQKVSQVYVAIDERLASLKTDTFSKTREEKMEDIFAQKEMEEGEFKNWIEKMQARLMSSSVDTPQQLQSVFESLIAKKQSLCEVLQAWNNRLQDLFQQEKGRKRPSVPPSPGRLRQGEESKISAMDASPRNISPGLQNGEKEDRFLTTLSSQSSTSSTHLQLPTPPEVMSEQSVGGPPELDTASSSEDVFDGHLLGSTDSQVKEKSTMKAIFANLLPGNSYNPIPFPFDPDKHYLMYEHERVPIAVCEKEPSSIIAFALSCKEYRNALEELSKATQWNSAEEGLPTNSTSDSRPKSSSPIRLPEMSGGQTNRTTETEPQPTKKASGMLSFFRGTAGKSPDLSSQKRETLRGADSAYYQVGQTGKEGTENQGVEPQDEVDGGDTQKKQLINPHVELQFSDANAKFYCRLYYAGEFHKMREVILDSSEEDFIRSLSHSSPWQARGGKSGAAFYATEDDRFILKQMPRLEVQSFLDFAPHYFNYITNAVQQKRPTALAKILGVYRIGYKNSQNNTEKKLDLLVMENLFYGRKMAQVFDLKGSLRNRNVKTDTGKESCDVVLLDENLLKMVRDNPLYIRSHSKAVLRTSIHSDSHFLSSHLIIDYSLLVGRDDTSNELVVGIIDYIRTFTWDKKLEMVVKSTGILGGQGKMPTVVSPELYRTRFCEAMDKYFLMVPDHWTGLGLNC
Put plainly: Inhibition of PIKfyve (microfluidic electrophoresis kinase assay). In kind it is biochemical. On the procedure: Biological Example 1: Inhibition of PIKfyve
Full length human recombinant PIKFYVE expressed in baculovirus expression system as N-terminal GST-fusion protein (265 kDa) was obtained from Carna Biosciences (Kobe, Japan). The kinase substrate was prepared by mixing and sonicating fluorescently-labeled phosphatidylinositol 3-phosphate (PI3P) with phospho-L-serine (PS) at a 1:10 ratio in 50 mM HEPES buffer pH7.5.
The kinase reactions were assembled in 384-well plates (Greiner) in a total volume of […] as follows. Kinase protein was pre-diluted in an assay buffer comprising 25 mM HEPES, pH 7.5, 1 mM DTT, 2.5 mM MgCl2, and 2.5 mM MnCl2, and 0.005% Triton X-100, and dispensed into a 384-well plate (10 μL per well). Test compounds were serially pre-diluted in DMSO and added to the protein samples by acoustic dispensing (Labcyte Echo). The concentration of DMSO was equalized to 1% in all samples. All test compounds were tested at 12 concentrations. Apilimod was used as a reference compound and was tested in identical manner in each assay plate. Control samples (0%-inhibition, in the absence of inhibitor, DMSO only) and 100%-inhibition (in the absence of enzyme) were assembled in replicates of four and were used to calculate %-inhibition in the presence of compounds. The reactions were initiated by addition of 10 μL of 2× PI3P/PS substrate supplemented with ATP. The final concentration of enzyme was 2 nM, the final concentration of ATP was […], and the final concentration of PI3P/PS substrate was 1 μM (PI3P). The kinase reactions were allowed to proceed for 3 h at room temperature. Following incubation, the reactions were quenched by addition of […] of termination buffer (100 mM HEPES, pH 7.5, 0.01% Triton X-100, 20 mM EDTA). Terminated plates were analyzed on a microfluidic electrophoresis instrument (Caliper LabChip® 3000, Caliper Life Sciences/Perkin Elmer). The change in the relative fluorescence intensity of the PI(3)P substrate and PI(3,5)P product peaks was measured. The activity in each test sample was determined as the product to sum ratio (PSR): P/(S+P), where P is the peak height of the product, and S is the peak height of the substrate. Percent inhibition (Pinh) was determined using the following equation:
Pinh=(PSR0%inh−PSRcompound)/(PSR0%inh−P100%inh)*100
in which PSRcompound is the product/sum ratio in the presence of compound, PSR0%inh is the product/sum ratio in the absence of compound, and the PSR100%inh is the product/sum ratio in the absence of the enzyme. To determine the ICso of test compounds (50%-inhibition) the %-inh cdata (Pinh versus compound concentration) were fitted by a four-parameter sigmoid dose-response model using XLfit software (IDBS).

For the next assay, the target named is T2, PI3Kα (p110α/p85α) (Homo sapiens, UniProt P42336).
T2 construct: Full-length N-terminal; FLAG (N); host or cells: SF9 cells (baculovirus)
In kind it is biochemical.

The next assay deals with T3, PI3Kβ (p110β/p85α) (Homo sapiens, UniProt P42338).
T3 construct: Full-length N-terminal GST-; GST (N); host or cells: SF9 cells (baculovirus)
T3 sequence (P42338 whole entry): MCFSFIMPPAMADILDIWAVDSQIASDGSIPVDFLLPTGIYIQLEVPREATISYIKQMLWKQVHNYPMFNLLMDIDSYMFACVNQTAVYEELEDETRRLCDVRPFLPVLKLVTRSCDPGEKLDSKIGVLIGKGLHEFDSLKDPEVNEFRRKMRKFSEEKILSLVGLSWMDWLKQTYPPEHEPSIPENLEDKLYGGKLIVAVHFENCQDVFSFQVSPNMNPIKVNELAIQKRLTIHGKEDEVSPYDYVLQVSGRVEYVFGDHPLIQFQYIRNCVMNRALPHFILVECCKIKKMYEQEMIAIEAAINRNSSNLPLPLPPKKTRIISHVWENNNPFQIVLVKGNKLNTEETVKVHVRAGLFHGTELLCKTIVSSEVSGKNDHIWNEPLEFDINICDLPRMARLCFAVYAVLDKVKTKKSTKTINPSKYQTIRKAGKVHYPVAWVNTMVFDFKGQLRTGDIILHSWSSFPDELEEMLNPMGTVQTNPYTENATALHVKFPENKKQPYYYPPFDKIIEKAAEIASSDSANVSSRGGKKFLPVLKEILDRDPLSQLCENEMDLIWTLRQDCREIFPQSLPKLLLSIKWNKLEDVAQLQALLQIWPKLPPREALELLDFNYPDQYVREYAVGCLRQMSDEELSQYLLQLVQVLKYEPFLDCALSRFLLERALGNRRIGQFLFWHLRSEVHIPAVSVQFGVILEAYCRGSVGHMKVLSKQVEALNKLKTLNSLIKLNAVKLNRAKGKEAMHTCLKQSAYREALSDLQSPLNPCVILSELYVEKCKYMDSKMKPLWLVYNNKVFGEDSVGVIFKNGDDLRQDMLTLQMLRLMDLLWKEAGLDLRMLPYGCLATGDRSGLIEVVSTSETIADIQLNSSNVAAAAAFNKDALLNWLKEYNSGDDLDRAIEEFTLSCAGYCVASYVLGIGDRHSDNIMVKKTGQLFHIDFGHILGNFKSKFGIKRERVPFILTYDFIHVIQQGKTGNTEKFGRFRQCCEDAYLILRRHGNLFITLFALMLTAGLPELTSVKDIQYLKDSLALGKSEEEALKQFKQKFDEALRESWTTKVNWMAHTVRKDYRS
T3 sequence (P27986 whole entry, further chain): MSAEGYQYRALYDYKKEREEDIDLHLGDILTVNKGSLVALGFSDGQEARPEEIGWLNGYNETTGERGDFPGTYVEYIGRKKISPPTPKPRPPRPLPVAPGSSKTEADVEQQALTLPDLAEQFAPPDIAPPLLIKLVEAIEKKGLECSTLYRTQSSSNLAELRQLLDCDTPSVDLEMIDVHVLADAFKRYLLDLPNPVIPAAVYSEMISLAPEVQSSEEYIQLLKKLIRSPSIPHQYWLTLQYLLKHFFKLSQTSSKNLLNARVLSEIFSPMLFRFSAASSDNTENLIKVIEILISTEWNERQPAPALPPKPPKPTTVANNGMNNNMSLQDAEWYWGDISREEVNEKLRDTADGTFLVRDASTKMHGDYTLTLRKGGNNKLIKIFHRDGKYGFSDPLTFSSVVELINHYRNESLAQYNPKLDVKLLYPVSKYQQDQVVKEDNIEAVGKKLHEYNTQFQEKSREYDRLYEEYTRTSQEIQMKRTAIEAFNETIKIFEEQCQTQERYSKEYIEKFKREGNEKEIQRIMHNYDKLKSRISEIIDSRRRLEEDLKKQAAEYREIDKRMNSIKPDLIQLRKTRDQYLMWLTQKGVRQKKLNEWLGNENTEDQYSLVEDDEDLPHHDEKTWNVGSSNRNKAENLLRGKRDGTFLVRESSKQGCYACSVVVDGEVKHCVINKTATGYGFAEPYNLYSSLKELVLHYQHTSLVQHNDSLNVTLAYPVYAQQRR
It counts as biochemical.

Another assay concerns the target T4, PI3Kδ (p110δ/p85α) (Homo sapiens, UniProt O00329).
T4 construct: Full-length N-terminal GST-; GST (N); host or cells: SF9 cells (baculovirus)
It counts as biochemical.

The subject of the next assay is IPSC-C9 motor neurons. Description: iPSC MN Survival assay (IPSC-C9). It counts as cell-based, human. Conditions: maximal reduction in hazard ratio vs control at various concentrations; <1.0 increased survival, >1.0 decreased survival.
Assay [2] relates to ALS patient (SOD1 A4V) iPSC derived motor neurons. Put plainly: iPSC MN Survival assay (IPSC-SOD1). In kind it is cell-based, human. Conditions: nutrient deprived media (HBSS), six days, maximal reduction in hazard ratio, <1.0 increased survival. On the procedure: Biological Example 4: iPSC MN Survival assay
Fibroblasts from ALS patients with known SOD1 A4V mutation were reprogrammed into inducible pluripotent stem cells (iPSC) and then differentiated to motor neurons. In culture, ALS patient derived motor neurons show increased death rate compared to motor neurons derived from healthy individuals in a stressed condition (nutrient deprived media, Hank's buffered salt solution—HBSS). […] Cell rescue was measured following more than two different concentrations of each compound for six days with greater than four replicates in a 96-well format to ensure studies with power >0.8. Cells are transduced with a GFP reporter and imaged once a day to track survival. A broad-spectrum caspase inhibitor served as the positive control.
Microscopy image-based readout: Cells are transduced with a GFP reporter and imaged once a day with a blue laser to track survival. Imagers used include the Biotek Cytation 5 and Thermo Fisher EVOS Auto FL 2. All Images undergo uniform processing consisting of rolling hat background subtraction and contrast adjustment. Microscopy images are analyzed using software proprietary to Verge. Cells are identified by their shape and each cell is tracked across images and time points for each well. Survival is visually assessed from the Kaplan-Meier curves. Survival of the cells is modeled and tested using a mixed effects Cox regression where each well is modeled as the random effect, and the group (control/treatment) as the fixed effect. […]. Data are presented in Table 7 as the maximal reduction in hazard ratio scores measured at various concentrations.

Where [3] appears, read: 2 nM enzyme, 1 μM PI3P, 3 h at room temperature, 12 concentrations, read-out: PIKfyve IC50.
[4] abbreviates: 0.5 nM enzyme, ATP 90 μM, 1 μM PIP2, 3 h room temperature, read-out: PI3Kα IC50.
Setting [5] is: 1 nM enzyme, ATP 60 μM, 1 μM PIP2, 3 h room temperature, read-out: PI3Kβ IC50.
[6] abbreviates: 0.25 nM enzyme, ATP 90 μM, 1 μM PIP2, 3 h room temperature, read-out: PI3Kδ IC50.

T4 sequence (O00329 whole entry): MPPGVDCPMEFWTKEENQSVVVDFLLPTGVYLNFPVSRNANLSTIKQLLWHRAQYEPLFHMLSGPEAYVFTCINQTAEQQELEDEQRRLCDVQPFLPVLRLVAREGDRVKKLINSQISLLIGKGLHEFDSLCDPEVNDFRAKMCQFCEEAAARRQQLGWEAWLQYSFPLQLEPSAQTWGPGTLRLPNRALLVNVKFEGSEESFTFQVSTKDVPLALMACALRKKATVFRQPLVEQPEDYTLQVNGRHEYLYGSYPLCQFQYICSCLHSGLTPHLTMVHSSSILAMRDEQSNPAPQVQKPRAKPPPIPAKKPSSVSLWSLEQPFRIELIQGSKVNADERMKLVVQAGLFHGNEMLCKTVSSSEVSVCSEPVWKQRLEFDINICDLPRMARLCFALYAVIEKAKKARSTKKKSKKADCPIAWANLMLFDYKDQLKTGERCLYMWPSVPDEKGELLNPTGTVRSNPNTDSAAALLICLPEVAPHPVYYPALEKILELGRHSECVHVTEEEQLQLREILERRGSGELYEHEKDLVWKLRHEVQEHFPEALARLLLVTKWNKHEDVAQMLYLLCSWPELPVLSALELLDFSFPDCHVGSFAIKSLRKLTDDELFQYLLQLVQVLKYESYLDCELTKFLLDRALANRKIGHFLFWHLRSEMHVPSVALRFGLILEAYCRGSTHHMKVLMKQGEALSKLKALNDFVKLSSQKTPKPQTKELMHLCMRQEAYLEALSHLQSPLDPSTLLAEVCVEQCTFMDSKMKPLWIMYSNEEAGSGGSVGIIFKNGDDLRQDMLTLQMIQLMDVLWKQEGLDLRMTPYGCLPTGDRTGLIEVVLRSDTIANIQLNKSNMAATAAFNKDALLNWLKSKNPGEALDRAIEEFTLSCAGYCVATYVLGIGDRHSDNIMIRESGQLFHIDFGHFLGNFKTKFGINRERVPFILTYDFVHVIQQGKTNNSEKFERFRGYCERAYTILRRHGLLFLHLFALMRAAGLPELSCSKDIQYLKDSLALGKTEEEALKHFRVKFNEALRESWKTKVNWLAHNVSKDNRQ
T4 sequence (P27986 whole entry, further chain): as the sequence (P27986 whole entry, further chain) above

Consider `Cc1cc(Nc2nc(N3CCOCC3)c3oc4ncccc4c3n2)[nH]n1` [Example 8, N-(3-Methyl-1H-pyrazol-5-yl)-4-morpholinopyrido[3′,2′:4,5]furo[3,2-d]pyrimidin-2-amine], for which the half-inhibitory concentration (IC50) in assay [1] (setting [3]) was 2.2 µM; at PI3Kα (p110α/p85α) (setting [4]), 0.161 µM; on PI3Kβ (p110β/p85α) (setting [5]), 0.306 µM; at PI3Kδ (p110δ/p85α) (setting [6]) it was 0.0239 µM.
In the case of `Cn1ccnc1Nc1nc(N2CCOCC2)c2oc3ncccc3c2n1` [Example 12, N-(1-Methyl-1H-imidazol-2-yl)-4-morpholinopyrido[3′,2′:4,5]furo[3,2-d]pyrimidin-2-amine], the IC50 was above 10 µM in assay [1] (setting [3]), 1.64 µM on PI3Kα (p110α/p85α) (setting [4]), 6.54 µM at PI3Kβ (p110β/p85α) (setting [5]) and 1.89 µM at PI3Kδ (p110δ/p85α) (setting [6]).
With `c1ccc(-c2cc(Nc3nc(N4CCOCC4)c4oc5ncc(CCN6CCCC6)cc5c4n3)[nH]n2)cc1` [Example 14, 4-Morpholino-N-(3-phenyl-1H-pyrazol-5-yl)-8-(2-(pyrrolidin-1-yl)ethyl)pyrido[3′,2′:4,5]furo[3,2-d]pyrimidin-2-amine], the IC50 in assay [1] (setting [3]) turned out to be 2.32 µM. Further, the “IPSC-C9 (Hazard Ratio)” value in the assay on IPSC-C9 motor neurons is recorded as 0.9. Besides, in assay [2], the “IPSC-SOD1 (Hazard Ratio)” value came to 0.96.
For the molecule `c1ccc(CCNc2nc(N3CCOCC3)c3oc4ncccc4c3n2)cc1` [Example 21, 4-morpholino-N-phenethylpyrido[3′,2′:4,5]furo[3,2-d]pyrimidin-2-amine], the IC50 in assay [1] (setting [3]) stood at 0.988 µM; on PI3Kα (p110α/p85α) (setting [4]), 0.158 µM; at PI3Kβ (p110β/p85α) (setting [5]), 0.243 µM; at PI3Kδ (p110δ/p85α) (setting [6]) it was 0.0374 µM.
For the molecule `O=C(Nc1nc(N2CCOCC2)c2oc3ncccc3c2n1)Oc1ccccc1` [Example 22, phenyl(4-morpholinopyrido[3′,2′:4,5]furo[3,2-d]pyrimidin-2-yl)carbamate hydrochloride], the IC50 is 6.4 µM in assay [1], 0.802 µM on PI3Kα (p110α/p85α), 2.7 µM on PI3Kβ (p110β/p85α) and 0.464 µM against PI3Kδ (p110δ/p85α).
Regarding `C[C@H](Nc1nc(N2CCOCC2)c2oc3ncccc3c2n1)C1CC1` [Example 36, (S)-N-(1-cyclopropylethyl)-4-morpholinopyrido[3′,2′:4,5]furo[3,2-d]pyrimidin-2-amine], the IC50 in assay [1] (setting [3]) was above 10 µM; on PI3Kα (p110α/p85α) (setting [4]), 0.077 µM; at PI3Kβ (p110β/p85α) (setting [5]), 0.749 µM; on PI3Kδ (p110δ/p85α) (setting [6]) it was 0.077 µM.
Take `c1cnc2oc3c(N4CCOCC4)nc(Nc4ccncc4)nc3c2c1` [Example 38, 4-morpholino-N-(pyridin-4-yl)pyrido[3′,2′:4,5]furo[3,2-d]pyrimidin-2-amine]: the IC50 in assay [1] (setting [3]) was above 10 µM; at PI3Kα (p110α/p85α) (setting [4]) it was 8.74 µM; on PI3Kβ (p110β/p85α) (setting [5]) it was 5.82 µM; at PI3Kδ (p110δ/p85α) (setting [6]) it was 1.49 µM.
Regarding `c1cncc(Nc2nc(N3CCOCC3)c3oc4ncccc4c3n2)c1` [Example 39, 4-morpholino-N-(pyridin-3-yl)pyrido[3′,2′:4,5]furo[3,2-d]pyrimidin-2-amine], the IC50 in assay [1] (setting [3]) came out at 2.18 µM; on PI3Kα (p110α/p85α) (setting [4]), 0.082 µM; on PI3Kβ (p110β/p85α) (setting [5]), 0.37 µM; at PI3Kδ (p110δ/p85α) (setting [6]) it was 0.06 µM.
For `c1ccc(Nc2nc(N3CCOCC3)c3oc4ncccc4c3n2)nc1` [Example 40, 4-morpholino-N-(pyridin-2-yl)pyrido[3′,2′:4,5]furo[3,2-d]pyrimidin-2-amine], in that order: 2.77 µM, 0.102 µM, 1.19 µM and 0.066 µM.
Consider `c1cnc2oc3c(N4CCOCC4)nc(Nc4cncnc4)nc3c2c1` [Example 43, 4-morpholino-N-(pyrimidin-5-yl)pyrido[3′,2′:4,5]furo[3,2-d]pyrimidin-2-amine], for which the IC50 in assay [1] (setting [3]) is above 10 µM. In addition, the “IPSC-C9 (Hazard Ratio)” value in the assay on IPSC-C9 motor neurons came out at 1.06. Besides, the “IPSC-SOD1 (Hazard Ratio)” value in assay [2] is 1.1.
`Cc1cc(Nc2nc(N3CCOCC3)c3oc4ncccc4c3n2)nn1C` [Example 47, N-(1,5-dimethyl-1H-pyrazol-3-yl)-4-morpholinopyrido[3′,2′:4,5]furo[3,2-d]pyrimidin-2-amine]: the IC50 turned out to be 4.32 µM in assay [1] (setting [3]), 0.082 µM on PI3Kα (p110α/p85α) (setting [4]), 2.63 µM at PI3Kβ (p110β/p85α) (setting [5]) and 0.054 µM on PI3Kδ (p110δ/p85α) (setting [6]). Moreover, the “IPSC-SOD1 (Hazard Ratio)” value in assay [2] stood at 1.1.
Regarding `c1cnc2oc3c(N4CCOCC4)nc(Nc4cc(C5CCC5)n[nH]4)nc3c2c1` [Example 55, N-(3-cyclobutyl-1H-pyrazol-5-yl)-4-morpholinopyrido[3′,2′:4,5]furo[3,2-d]pyrimidin-2-amine hydrochloride], the IC50 in assay [1] (setting [3]) amounted to 1.28 µM; on PI3Kα (p110α/p85α) (setting [4]), 0.016 µM; on PI3Kβ (p110β/p85α) (setting [5]), 0.315 µM; on PI3Kδ (p110δ/p85α) (setting [6]), 0.007 µM.
For `c1cnc2oc3c(N4CCOCC4)nc(Nc4cc(CC5CCC5)n[nH]4)nc3c2c1` [Example 56, N-(3-(cyclobutylmethyl)-1H-pyrazol-5-yl)-4-morpholinopyrido[3′,2′:4,5]furo[3,2-d]pyrimidin-2-amine hydrochloride], in that order: 1.79 µM, 0.047 µM, 0.937 µM and 0.024 µM.
Consider `c1csc(-c2cc(Nc3nc(N4CCOCC4)c4oc5ncccc5c4n3)[nH]n2)c1` [Example 60, 4-morpholino-N-(3-(thiophen-2-yl)-1H-pyrazol-5-yl)pyrido[3′,2′:4,5]furo[3,2-d]pyrimidin-2-amine hydrochloride], for which, in assay [1] (setting [3]), the half-inhibitory concentration (IC50) came to 0.037 µM.
Regarding `Cl.c1cnc2oc3c(N4CCOCC4)nc(Nc4cc(-c5ccsc5)n[nH]4)nc3c2c1` [Example 61, 4-morpholino-N-(3-(thiophen-3-yl)-1H-pyrazol-5-yl)pyrido[3′,2′:4,5]furo[3,2-d]pyrimidin-2-amine hydrochloride], the 50% inhibitory concentration (IC50) in assay [1] (setting [3]) is 0.026 µM. Also, in the assay on IPSC-C9 motor neurons, the “IPSC-C9 (Hazard Ratio)” value was 0.542.
For the molecule `CCc1cc(Nc2nc(N3CCOCC3)c3oc4ncccc4c3n2)[nH]n1` [Example 62, N-(3-ethyl-1H-pyrazol-5-yl)-4-morpholinopyrido[3′,2′:4,5]furo[3,2-d]pyrimidin-2-amine hydrochloride], the IC50 in assay [1] (setting [3]) amounted to 7.85 µM.
Same read-out and setting: the figure for `CC(C)c1cc(Nc2nc(N3CCOCC3)c3oc4ncccc4c3n2)[nH]n1` [Example 63, N-(3-isopropyl-1H-pyrazol-5-yl)-4-morpholinopyrido[3′,2′:4,5]furo[3,2-d]pyrimidin-2-amine hydrochloride] is 1.85 µM.
